Laboratory results reported in patent US20240368121A1, “ESTROGEN RECEPTOR DEGRADERS, PHARMACEUTICAL COMPOSITIONS THEREOF, AND THEIR THERAPEUTIC APPLICATIONS” (BioTheryX, Inc., priority 2021, published 2024).

Tests used:
ERα = biological target: T1, ERα (Homo sapiens, UniProt P03372); test: Protein degradation assay: ERα in MCF-7 cells via western blot; format: cell-based; details: 6 h; for ERα Protein Degradation 1 nM: 1 nM compound; for ERα Protein Degradation 10 nM: 10 nM compound; for ERα Protein Degradation 100 nM: 100 nM compound
T1 construct: degrading an ERα in MCF-7 cells via a western blot; endogenous in cells; host or cells: MCF-7
T1 sequence (P03372 1-595): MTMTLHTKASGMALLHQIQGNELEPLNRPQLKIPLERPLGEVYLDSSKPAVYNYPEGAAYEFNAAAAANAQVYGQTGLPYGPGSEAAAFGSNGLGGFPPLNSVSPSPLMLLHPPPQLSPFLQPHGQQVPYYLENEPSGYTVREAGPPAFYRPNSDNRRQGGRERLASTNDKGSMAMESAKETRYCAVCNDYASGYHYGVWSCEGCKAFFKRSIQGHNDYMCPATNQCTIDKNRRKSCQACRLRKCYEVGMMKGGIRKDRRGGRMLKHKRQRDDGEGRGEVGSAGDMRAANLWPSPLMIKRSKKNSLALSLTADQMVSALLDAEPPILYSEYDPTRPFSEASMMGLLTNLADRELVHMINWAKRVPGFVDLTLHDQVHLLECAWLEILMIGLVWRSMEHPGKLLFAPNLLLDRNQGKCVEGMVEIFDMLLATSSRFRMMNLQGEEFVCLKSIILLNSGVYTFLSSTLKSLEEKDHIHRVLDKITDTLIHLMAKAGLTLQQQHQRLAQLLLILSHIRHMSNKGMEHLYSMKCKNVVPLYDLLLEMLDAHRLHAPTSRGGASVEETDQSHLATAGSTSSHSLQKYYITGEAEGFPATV
Description: A compound provided herein was assessed for its activity in degrading an ERα in MCF-7 cells via a western blot. The MCF7 cells were cultured at 37° C. in a humidified 5% C02 environment in MEM supplemented with 10% FBS with insulin. The cells were seeded in 12-well plates at a density of 300,000 cells per well in maintenance media. Cells were treated with the compound at predetermined concentrations (e.g., 1 nM, 10 nM, 100 nM, and 1 μM) for 6 h. The cells were then washed in PBS and the whole cells were lysed in a cell lysis buffer and incubated for 15 minutes on ice. Cell debris was removed by high-speed centrifugation and the cleared whole cell lysates were prepared for further analysis by a western blot. The whole cell protein extracts were separated on SDS-polyacrylamide gels, transferred to nitrocellulose membranes, and probed with primary antibodies, including anti-ERα antibody and GAPDH antibody for loading control. The membranes were subsequently washed and probed with secondary antibodies for chemiluminescence, followed by imaging on a BIORAD CHEMIDOC Imaging System. The results are summarized in Table 2, where “A” represents a percentage degradation value of no less than 50%; “B” represents a percentage degradation value of less than 50% and no less than 25%; “C” represents a percentage degradation value of less than 25% and no less than 10%; and “D” represents a percentage degradation value of less than 10%.

MCF7 cells = test: Cell viability assay ([…]-GLO, 6-day treatment); format: cell-based; details: Homo sapiens, MCF7, 144 h; MCF-7 cells, 6 days, CTG; read-out: Inhibition of Cancerous Cells IC50 MCF-7
Description: A compound provided herein was evaluated for its anticancer activity in MCF7 and T47D cells. MCF7 and T47D cells were cultured at 37° C. in a humidified 5% C02 environment in MEM or RPMI, supplemented with 10% FBS with insulin, respectively. The cells were plated in 384-well microplates at a density of 1,000 cells per well in their respective maintenance media. The cells were treated with the compound by a 10-point dose response curve for 6 days, during which, the medium and compound were refreshed once. After the 6-day treatment, the cell viability was assessed using […]-GLO (CTG) reagent. Luminescence was measured with a microplate reader.

Row | Structure (SMILES) | ERα Protein Degradation 1 nM (ERα) | ERα Protein Degradation 10 nM (ERα) | ERα Protein Degradation 100 nM (ERα) | IC50 (MCF7 cells) [nM]
1 | O=C1CCC(N2Cc3c(csc3COc3ccc(CNCCCCCOc4ccc([C@@H]5c6ccc(O)cc6CC[C@@H]5c5ccccc5)cc4)cc3)C2=O)C(=O)N1 (stereo in doubt) [Compound A17, 3-(1-((4-(((5-(4-((1R,2S)-6-Hydroxy-2-phenyl-1,2,3,4-tetrahydronaphthalen-1-yl)phenoxy)pentyl)amino)methyl)phenoxy)methyl)-4-oxo-4H-thieno[3,4-c]pyrrol-5(6H)-yl)piperidine-2,6-dione] | B (a percentage degradation value of less than 50% and no less than 25%) | C (a percentage degradation value of less than 25% and no less than 10%) | D (a percentage degradation value of less than 10%) | 1160
2 | O=C1CCC(N2Cc3c(csc3COc3ccc(CNCCCCCOc4ccc([C@@H]5c6ccc(O)cc6CC[C@@H]5c5ccccc5)cc4)cc3)C2=O)C(=O)N1 (stereo partly drawn) [Compound A9, 3-(1-((4-(((5-(4-((1R,2S)-6-hydroxy-2-phenyl-1,2,3,4-tetrahydronaphthalen-1-yl)phenoxy)pentyl)amino)methyl)phenoxy)methyl)-4-oxo-4H-thieno[3,4-c]pyrrol-5(6H)-yl)piperidine-2,6-dione] | B (a percentage degradation value of less than 50% and no less than 25%) | B (a percentage degradation value of less than 50% and no less than 25%) | B (a percentage degradation value of less than 50% and no less than 25%) | 1.4
3 | O=C1CCC(N2Cc3c(cc(F)cc3C3CCN(CCCCOc4ccc([C@H]5c6ccc(O)cc6CC[C@H]5c5ccccc5)cc4)CC3)C2=O)C(=O)N1 (stereo partly drawn) [Compound A12, 3-(6-Fluoro-4-(1-(4-(4-((1S,2R)-6-hydroxy-2-phenyl-1,2,3,4-tetrahydro-naphthalen-1-yl)phenoxy)butyl)piperidin-4-yl)-1-oxoisoindolin-2-yl)piperidine-2,6-dione] | C (a percentage degradation value of less than 25% and no less than 10%) | C (a percentage degradation value of less than 25% and no less than 10%) | C (a percentage degradation value of less than 25% and no less than 10%) | –
4 | O=C1CCC(N2Cc3cc(C4CCN(CCCCOc5ccc([C@H]6c7ccc(O)cc7CC[C@H]6c6ccccc6)cc5)CC4)c(F)cc3C2=O)C(=O)N1 (stereo partly drawn) [Compound A13, 3-(6-Fluoro-5-(1-(4-(4-((1S,2R)-6-hydroxy-2-phenyl-1,2,3,4-tetrahydro-naphthalen-1-yl)phenoxy)butyl)piperidin-4-yl)-1-oxoisoindolin-2-yl)piperidine-2,6-dione] | C (a percentage degradation value of less than 25% and no less than 10%) | B (a percentage degradation value of less than 50% and no less than 25%) | C (a percentage degradation value of less than 25% and no less than 10%) | –
5 | O=C1CCC(N2Cc3c(csc3C3CCN(CCCCCCOc4ccc([C@@H]5c6ccc(O)cc6CC[C@@H]5c5ccccc5)cc4)CC3)C2=O)C(=O)N1 (stereo partly drawn) [Compound A18, 3-(1-(1-(6-(4-((1R,2S)-6-Hydroxy-2-phenyl-1,2,3,4-tetrahydronaphthalen-1-yl)-phenoxy)hexyl)piperidin-4-yl)-4-oxo-4H-thieno[3,4-c]pyrrol-5(6H)-yl)piperidine-2,6-dione] | – | – | – | 0.28
6 | Cn1nc([C@H]2CCC(=O)NC2=O)c2ccc(OCC(=O)N3CCN(CCCCOc4ccc([C@@H]5c6ccc(O)cc6CC[C@@H]5c5ccccc5)cc4)CC3)cc21 [Compound B26, (R)-3-(6-(2-(4-(4-(4-((1R,2S)-6-Hydroxy-2-phenyl-1,2,3,4-tetrahydronaphthalen-1-yl)phenoxy)butyl)piperazin-1-yl)-2-oxoethoxy)-1-methyl-1H-indazol-3-yl)piperidine-2,6-dione] | – | – | – | 0.13
7 | CC1(Cc2ccc(OCCCCN3CCN(C(=O)COc4cccc5c4CN(C4CCC(=O)NC4=O)C5=O)CC3)cc2)C(c2ccc(O)cc2)=Nc2ccc(O)cc21 (stereo not shown) [Compound D1, 3-(4-(2-(4-(4-(4-((5-hydroxy-2-(4-hydroxyphenyl)-3-methyl-3H-indol-3-yl)-methyl)phenoxy)butyl)piperazin-1-yl)-2-oxoethoxy)-1-oxoisoindolin-2-yl)piperidine-2,6-dione] | D (a percentage degradation value of less than 10%) | D (a percentage degradation value of less than 10%) | D (a percentage degradation value of less than 10%) | –
8 | CC1(Cc2ccc(OCCCCN3CCN(c4ccc5c(c4)CN(C4CCC(=O)NC4=O)C5=O)CC3)cc2)C(c2ccc(O)cc2)=Nc2ccc(O)cc21 (stereo not shown) [Compound D2, 3-(5-(4-(4-(4-((5-Hydroxy-2-(4-hydroxyphenyl)-3-methyl-3H-indol-3-yl)-methyl)phenoxy)butyl)piperazin-1-yl)-1-oxoisoindolin-2-yl)piperidine-2,6-dione] | D (a percentage degradation value of less than 10%) | D (a percentage degradation value of less than 10%) | D (a percentage degradation value of less than 10%) | –
9 | CC1(Cc2ccc(OCCCCN3CCN(C(=O)COc4ccc(N5CCC(=O)NC5=O)cc4)CC3)cc2)C(c2ccc(O)cc2)=Nc2ccc(O)cc21 (stereo not shown) [Compound D9, 1-(4-(2-(4-(4-(4-((5-Hydroxy-2-(4-hydroxyphenyl)-3-methyl-3H-indol-3-yl)-methyl)phenoxy)butyl)piperazin-1-yl)-2-oxoethoxy)phenyl)dihydropyrimidine-2,4(1H,3H)-dione] | D (a percentage degradation value of less than 10%) | D (a percentage degradation value of less than 10%) | D (a percentage degradation value of less than 10%) | –
10 | Cc1c(-c2ccc(O)cc2)n(Cc2ccc(N3CCC(CN4CCN(C(=O)COc5ccc6c(C7CCC(=O)NC7=O)nn(C)c6c5)CC4)CC3)cc2)c2ccc(O)cc12 (stereo not shown) [Compound E15, 3-(6-(2-(4-((1-(4-((5-hydroxy-2-(4-hydroxyphenyl)-3-methyl-1H-indol-1-yl)-methyl)phenyl)piperidin-4-yl)methyl)piperazin-1-yl)-2-oxoethoxy)-1-methyl-1H-indazol-3-yl)-piperidine-2,6-dione] | – | – | – | 0.27
11 | Cc1c(-c2ccc(O)cc2)n(Cc2ccc(N3CCC(CN4CCN(c5ccc6c(C7CCC(=O)NC7=O)nn(C)c6c5)CC4)CC3)cc2)c2ccc(O)cc12 (stereo not shown) [Compound E17, 3-(6-(4-((1-(4-((5-Hydroxy-2-(4-hydroxyphenyl)-3-methyl-1H-indol-1-yl)-methyl)phenyl)piperidin-4-yl)methyl)piperazin-1-yl)-1-methyl-1H-indazol-3-yl)piperidine-2,6-dione] | – | – | – | 0.8
12 | Cc1c(-c2ccc(O)cc2)n(Cc2ccc(N3CCC(CCN4CCN(c5ccc6c(C7CCC(=O)NC7=O)nn(C)c6c5)CC4)CC3)cc2)c2ccc(O)cc12 (stereo not shown) [Compound E18, 3-(6-(4-(2-(1-(4-((5-Hydroxy-2-(4-hydroxyphenyl)-3-methyl-1H-indol-1-yl)-methyl)phenyl)piperidin-4-yl)ethyl)piperazin-1-yl)-1-methyl-1H-indazol-3-yl)piperidine-2,6-dione] | – | – | – | 0.36
